Results: article PMC10708454, “Mentha spp. Essential Oils: A Potential Toxic Fumigant with Inhibition of Acetylcholinesterase Activity on Reticulitermes dabieshanensis” (Plants, 2023)

Target: T1, acetylcholinesterase (AChE)
T1 construct: gene ace-1; native enzyme in crude whole-worker homogenate (Triton X-100 supernatant), not purified; the docking model is of Coptotermes formosanus, not this enzyme
Assay: Ellman assay, crude termite homogenate
Assay type: biochemical, Reticulitermes dabieshanensis
Conditions: acetylthiocholine iodide (10 mM stock), DTNB, Tris-HCl pH 7.8, 30 min, inhibitor in alcohol

Compound	IC50 ^a (95% CI ^b) (0.5-6.0 μL/mL)	IC50 ^a (95% CI ^b) (1.0-20.0 μL/mL (value outside tested range))
C=C(C)C1CC=C(C)C(=O)C1 (stereo not drawn) [carvone]	1.922 (1.131–3.308) μL/mL	
CC(C)[C@@H]1CC[C@@H](C)C[C@H]1O [menthol]		76.790 (36.58–166.367) μL/mL
C=CC(C)(O)CCC=C(C)C (stereo not drawn) [linalool]	0.136 (0.066–0.218) μL/mL	
